Data as given in PubChem BioAssay AID2610 (Broad Institute, 2010).
Results filed as inconclusive are left out. Active and inactive are the calls of the source.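 Rule for the calls: active = EC50 no more than tenfold above the top concentration tested, with valid fit and all samples agreeing; inconclusive = flat fit at 30 to 70% inhibition, poor fit, or split samples; inactive = EC50 beyond tenfold the top concentration tested.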

System: BJeLR fibroblast viability, Alamar Blue fluorescence, 48 h
Test: cytotoxicity toward RAS-transformed BJeLR fibroblasts, dose response, cell-based, alamar blue fluorescence, 48 h, cherrypicked samples (AID 2610);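 note: BJ fibroblasts with hTERT plus SV40 large and small T and HRAS V12; EC50 for loss of viable cells so potency reflects cytotoxic compounds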

Compound	EC50
C#CCOc1ccc(C2C3=C(COC3=O)Nc3cc4c(cc32)OCO4)cc1OC (stereo unspecified)	< 0.104 µM
COCCCNC(=O)c1ccc2c3c(onc13)-c1ccccc1C2=O	3.15 µM
Cc1ccc(C(=O)c2cc([N+](=O)[O-])ccc2N2CCCCC2)c(C)c1	< 0.104 µM
CCN(CC)c1ccc(/C=N/NC(=O)c2nnn(-c3nonc3N)c2C(C)C)c(O)c1	0.565 µM
COCc1c(C(C)C)nc(C(C)C)c(/C=C/[C@@H](O)C[C@@H](O)CC(=O)O)c1-c1ccc(F)cc1	< 0.104 µM
C[C@]12CCC3C(CCC4=CC(O)CC[C@@]43/C=N/O)C1(O)CCC2C1=CC(=O)OC1 (stereo partly specified)	0.294 µM
CCCCC(=O)NC(c1ccc(C(C)C)cc1)c1ccc2cccnc2c1O (stereo unspecified)	6.42 µM
CC1CCCCC1N(C)C1CCN(C(=O)CNC(=O)/C=C/c2cccc(Cl)c2)CC1 (stereo unspecified)	1.29 µM
CN(C)CCNC(=O)c1cc2c(s1)-c1ccc(Cl)cc1SC2	1.12 µM
CCCCc1c(C)c(C#N)c2nc3ccccc3n2c1Cl	0.587 µM
O=C(NCCCn1ccnc1)c1ccc(N2CCCCCC2)c([N+](=O)[O-])c1	6.68 µM
CCCc1cc(=O)[nH]c(SCC(=O)c2c(N)n(CC(C)C)c(=O)n(C)c2=O)n1	> 13.3 µM (inactive)
O=C1c2cccc3cc([N+](=O)[O-])cc(c23)C(=O)N1CCN1CCCC1	0.409 µM
O=C(NC(Nc1nc2ccc([N+](=O)[O-])cc2s1)(C(F)(F)F)C(F)(F)F)c1ccccc1Cl	0.427 µM
ClC1=C(Cl)C(Cl)=C(Cl)C1=C/C=C/c1ccccc1	1.04 µM
Cc1ccc(-c2nnc(SCC(=O)Nc3ccccc3F)o2)cc1	> 13.3 µM (inactive)
C[C@@H]1C=CC(=O)O[C@@H]1c1ccc(Cl)cc1	4.19 µM
S=C(N/N=C/c1ccc2ncccc2c1)Nc1ccccc1	> 13.3 µM (inactive)
CC1=CC(=O)C=C(C)C1=NOc1ccccc1[N+](=O)[O-]	0.67 µM
O=[N+]([O-])c1c(Nc2ccccn2)cc(Cl)c2nonc12	2.11 µM
O=C(COc1ccc(Cl)cc1)Nc1ccc(C(=O)NCc2cccnc2)cc1	4.42 µM
Cn1cnc([N+](=O)[O-])c1Sc1ncnc2nc[nH]c12	> 13.3 µM (inactive)

Compound	EC50
COc1ccc(-c2cc3nc(C)n(N)c(=O)c3s2)cc1	> 13.3 µM (inactive)
CCN1C(=O)C(=Cc2cccc(OC)c2Oc2ccc([N+](=O)[O-])cc2[N+](=O)[O-])SC1=S	1.05 µM
CCc1ccc(CCC(=O)Nc2ncc(Cc3ccccc3Cl)s2)o1	1.06 µM
CCc1ccc(/C=C2/SC(=S)N(CCC(=O)NCCCN3CCOCC3)C2=O)cc1	2.42 µM
CCN1CCN(CCNC(=O)c2ccc(/C=C3/Sc4ccccc4N(Cc4ccccc4C)C3=O)cc2)CC1	> 13.3 µM (inactive)
O=C1/C(=C/c2ccncc2)CCC/C1=C\c1ccncc1	0.539 µM
COC(=O)C1CC23C=CCN4CCC5(c6ccccc6NC15C2C)C43 (stereo unspecified)	< 0.104 µM
COc1ccc(/C=N/NC(=O)c2[nH]c3ccc(Br)cc3c2-c2ccccc2)cc1	< 0.0703 µM
Cc1ccccc1OCC(O)CNC1CCC(NCC(O)COc2ccccc2C)CC1 (stereo unspecified)	0.582 µM
COc1cc(/C=C/[N+](=O)[O-])ccc1O	6.5 µM
COc1ccc(N(C(=O)CCl)C(C(=O)NCCc2ccccc2)c2cccs2)cc1Cl (stereo unspecified)	< 0.0502 µM
Nc1ccc2c(c1)C(=O)C(=O)c1ccccc1-2	1.72 µM
Cc1cc(N)c2cc(NC(=O)/C=C/c3ccccc3Cl)ccc2n1	1.24 µM
N#CC(C#N)=NNc1ccc(-n2ccc(C(F)(F)F)n2)cc1	2.65 µM
O=C(/C=C/c1ccco1)Nc1ccc(Oc2ccccc2)cc1	> 13.3 µM (inactive)
CCN1/C(=C/c2ccc3ccccc3[n+]2CC)C=Cc2ccccc21	0.726 µM
CCN1C/C(=C/c2ccc(OC)c(O)c2)C(=O)/C(=C/c2ccc(OC)c(O)c2)C1	0.472 µM
O=C(NCCOc1cccnc1)c1ccc(OC2CCN(Cc3ccccn3)CC2)cc1	< 0.0919 µM
O=C(N/N=C/c1ccc([N+](=O)[O-])o1)c1cc2ccccc2o1	7.5 µM
CSc1ccc(COC(=O)c2cc([N+](=O)[O-])ccc2N2CCOCC2)cc1	< 0.104 µM
CCn1c(C)nc2cc(-c3nc4n(n3)Cc3ccccc3-4)ccc21	> 13.3 µM (inactive)
Cc1cccc2cc(C#N)c(SCC(=O)N3CC(=O)Nc4ccccc43)nc12	< 0.104 µM

Compound	EC50
O=S(=O)(c1ccc(NC(=S)NCc2cccnc2)cc1)N1CCCCC1	< 0.133 µM
CC1(C)N=C(N)N=C(N)N1c1ccccc1	> 13.3 µM (inactive)
C/C(=N\Nc1nc2ccccc2[nH]1)c1ccccn1	0.165 µM
CC(C)[C@]12O[C@H]1[C@@H]1O[C@]13[C@]1(O[C@H]1C[C@H]1C4=C(CC[C@@]13C)C(=O)OC4)[C@@H]2O	< 0.104 µM
COc1cccc2c1C(=O)c1c(O)c3c(c(O)c1C2=O)C[C@@](O)(C(=O)CO)C[C@@H]3O[C@H]1C[C@H](N)[C@H](O)[C@H](C)O1	< 0.104 µM
O=C1C(=O)c2ccc(-c3ccccc3)cc2-c2ccccc21	0.926 µM
O=[N+]([O-])c1ccccc1N/N=C\c1ccccc1Cl	> 13.3 µM (inactive)
Cc1cc(C)c2c(CCl)cc(=O)oc2c1	0.116 µM
O=C(c1cccs1)c1no[n+]([O-])c1C(=O)c1cccs1	2.99 µM
CCNC(=S)NNC(=O)c1cc(-c2ccc(OCC)cc2)nc2ccccc12	> 13.3 µM (inactive)
CN1C/C(=C/c2ccncc2)C(=O)/C(=C/c2ccncc2)C1	0.555 µM
c1ccc2nc(-c3nc4ccccc4o3)ccc2c1	> 13.3 µM (inactive)
CCOc1ccc2nc(NC(=O)c3ccoc3C)sc2c1	> 13.3 µM (inactive)
O=C1C=C(c2cccs2)C[C@H](c2ccccc2)[C@H]1n1nnc([N+](=O)[O-])n1	< 0.104 µM
O=C(CCCCCCCCCCC(=O)NCc1cccnc1)NCc1cccnc1	> 13.3 µM (inactive)
COc1cc(NC(=O)c2cccs2)c(OC)cc1NC(=O)CCC(=O)Nc1ccc2ncccc2c1	> 13.3 µM (inactive)
Cc1ccc(C(=O)Sc2cccccc2=O)cc1	< 0.0624 µM
COCCCN=C1NN=C(c2cc(C)n(Cc3ccco3)c2C)CS1	< 0.104 µM
CC(=O)Nc1ccc(/C=N/Nc2nc3ccccc3[nH]2)cc1	> 13.3 µM (inactive)
Cc1cccc(Nc2nc(N)nc(CCl)n2)c1C	0.468 µM
Cn1cccc1/C=C1\SC(=Nc2ccc(O)cc2)NC1=O	< 0.104 µM
O=C(c1ccc2c3n(nc2c1)-c1ccccc1CO3)N1CCOCC1	> 13.3 µM (inactive)

Compound	EC50
COc1ccc(N/N=C(/N=Nc2nc(C)cc(=O)[nH]2)c2ccccc2)cc1	0.446 µM
Cc1ccc(NC(=O)[C@H](Cc2c[nH]c3ccccc23)NC(=O)[C@@H]2Cc3ccccc3CN2)c(C)c1	> 13.3 µM (inactive)
C/C(=N\NC(=O)c1ccc(F)cc1)c1ccccn1	0.491 µM
CCOc1ccc(N=Cc2c(C)[nH]n(-c3nc4ccccc4[nH]3)c2=O)cc1	> 13.3 µM (inactive)
COc1ccc(S(=O)(=O)N2c3ccc(F)cc3CCC2C)cc1 (stereo unspecified)	< 0.104 µM
CC1=CC(C)(C)N(S(=O)(=O)c2ccc(C)cc2)c2cc(C)ccc21	0.386 µM
O=S1(=O)C=C(Sc2nc3ccccc3s2)c2ccccc21	0.316 µM
COc1cccc(N2C(N)=NC(N)=NC2(C)C)c1	> 13.3 µM (inactive)
CCN(CC)c1ccc2c(cc1=O)[C@@H](NC)CCc1cc(OC)c(OC)c(OC)c1-2	0.38 µM
Cn1c(/C=C/c2ccc([N+](=O)[O-])o2)nc2ccccc2c1=O	0.544 µM
CCOc1ccc(C(=O)c2cc([N+](=O)[O-])ccc2N2CCOCC2)cc1	< 0.104 µM
Cc1ccc(N2C(=O)c3cccc4c([N+](=O)[O-])ccc(c34)C2=O)c2cccnc12	0.523 µM
CNC(=S)N/N=C/c1ccc(-c2ccc(C(=O)O)cc2)o1	> 13.3 µM (inactive)
CCOC(=O)c1c(C)[nH]c2c1-c1ccccc1C(=O)C2=O	0.492 µM
C[C@@H]1C[C@H]2OC(=O)C3(CO3)[C@H]2[C@H](O)[C@]2(C)C(=O)C3OC3[C@@H]12 (stereo partly specified)	2.83 µM
COc1ccc2c(c1)sc(N)[n+]2Cc1cc(C)cc2cccnc12	0.266 µM
CC(C)C(=O)Nc1ccc(C(=O)NCc2cccnc2)cc1	0.742 µM
CCCc1sc(N/N=C/c2ccccn2)nc1-c1ccc(F)cc1	1.36 µM
COc1cccc(C(=O)Nc2ccc(N3CCCC3)cc2)c1	1.97 µM
COc1cccc(N(C(=O)CCl)C(C(=O)NCCc2ccccc2)c2cccs2)c1 (stereo unspecified)	0.212 µM
CCOc1ccc2c(c1)C(C)=CC(C)(C)N2S(=O)(=O)c1ccc(NC(C)=O)cc1	< 0.104 µM
CCOC(=O)c1c(CSC(=N)N)n(-c2ccc(C)cc2)c2cc(Br)c(OC(C)=O)cc12	> 13.3 µM (inactive)

Compound	EC50
Cc1cccc(C)c1NS(=O)(=O)c1ccc(-c2cnc(C3CC3)o2)cc1	< 0.104 µM
COc1ccccc1/C=C1\SC(=S)N(CCC(=O)NCCCn2ccnc2)C1=O	> 13.3 µM (inactive)
CC(C)(C)c1ccc(C(=O)Nc2ccc(C(=O)NCc3cccnc3)cc2)cc1	< 0.118 µM
Cc1sc2ncnc(N/N=C/c3ccccc3O)c2c1C	3.7 µM
COc1ccc(N=C2S/C(=C\c3ccc(Cl)c([N+](=O)[O-])c3)C(=O)N2CCN(C)C)cc1	1.37 µM
COc1cc2c(cc1OC)C(c1cc(Br)ccc1F)N(C(=O)CCl)CC2 (stereo unspecified)	1.31 µM
CC(C)(C)c1nnc(N/N=C/c2cc(Br)ccc2O)n(N)c1=O	1.4 µM
Cc1ccc(/C=N/NC(=O)c2n[nH]c3c2CCCC3)cc1	< 0.104 µM
CCCCN=C[C@]12CCC(O)CC1(O)CCC1[C@@H]2CC[C@]2(C)[C@H](C3C=CC(=O)O3)CCC12O (stereo partly specified)	0.315 µM
Cn1cnc(Sc2ncnc3nc[nH]c23)c1[N+](=O)[O-]	> 13.3 µM (inactive)
Cc1nc2ccc(CN(C)c3ccc(C(=O)N[C@@H](CCC(=O)O)C(=O)O)s3)cc2c(=O)[nH]1	> 13.3 µM (inactive)
COc1ccc(-c2nnc(NC(=O)c3ccc(S(=O)(=O)N4CCc5ccccc5C4)cc3)o2)cc1	2.6 µM
N=c1c2c(-c3ccccc3)c(-c3ccccc3)n(Cc3ccco3)c2ncn1CCCn1ccnc1	1.27 µM
COc1ccccc1N(C(=O)CCl)c1cn(C(C)=O)c2ccccc12	0.717 µM
FC(F)(F)c1nnc2c(Sc3ccc(Cl)cc3)nc3ccccc3n12	0.531 µM
COc1ccc(N/C=C/C(=O)c2cc(OC)c(OC)c(OC)c2)cc1	0.206 µM
COc1ccc(C[C@H]2NC[C@H](O)[C@H]2OC(C)=O)cc1	< 0.0647 µM
Cc1ccc2[nH]c3c(c2c1)CCCC3NC(=O)CCl (stereo unspecified)	2.27 µM
